{"source": "patent US20240398767A1", "about": "“INHIBITORS OF THE MTDH-SND1 PROTEIN COMPLEX FOR CANCER THERAPY” (The Trustees of Princeton University, priority 2021, published 2024)", "key": {"[1]": {"test_system": "Py8119-OVA cells co-cultured with OT-I splenocytes", "assay": "Py8119-OVA tumor cell / OT-I splenocyte co-culture", "assay_type": "cell-based, mouse", "conditions": "200 μM", "protocol": "FIG. 22C, Py8119-OVA cells co-cultured with OT-I splenocytes were treated with 200 μM of C26-A6 or same amount of vehicle. The binding between MTDH and Tap1/2 in tumor cells were determined by RIP assay.\nFIG. 22D, Tap1/2 RNAs that bind to MTDH in (c) were quantified and normalized to the pulled down MTDH levels.\nFIG. 22E, Tap1/2 levels in Py8119-OVA cells with/without 200 μM of C26-A6 treatment during co-culture were examined by qRT-PCR.\nFIG. 22F, OVA (H-2K^b-SIINFEKL) presentation in Py8119-OVA cells with/without 200 μM of C26-A6 treatment in co-culture were determined by flow cytometry. MFI, Mean Fluorescence Intensity; AU, arbitrary units.\nFIG. 22G, Media in (E) was collected for IFN-γ ELISA and cytotoxicity assay. AU, arbitrary units.\nFIG. 32B, Py8119-OVA cells co-cultured with OT-I splenocytes were treated with 200 μM of C26-A6 or same amount of vehicle. The binding between SND1 and Tap1/2 in tumor cells were determined by RIP assay.\nFIG. 32C, Tap1/2 RNAs that bind to SND1 were quantified and normalized to the pulled down SND1 levels.\nFIG. 32D, MHC-I presentation in Py8119-OVA cells with/without 200 μM of C26-A6 treatment in co-culture were determined by flow cytometry. MFI, mean fluorescence intensity; AU, arbitrary units.\nFIGS. 32E, The expression of CD137 in splenocytes co-cultured with Py8119-OVA was determined by flow cytometry upon 200 μM of C26-A6 or vehicle treatment.\nFIGS. 32F, The expression of IFN-γ in splenocytes co-cultured with Py8119-OVA were determined by flow cytometry upon 200 μM of C26-A6 or vehicle treatment.\nImmune cell and tumor cell co-culture assay. Py8119-OVA tumor cells with various MTDH expression status were plated in 6-well plates for in vitro co-culture in DMEM/F12 media listed above. Once cells reached 50-75% confluency OT-I splenocytes or CD8^+ T cells were added to the tumor cells at the 1:10 ratio (tumor cell. immune cell). After 24 hr of co-culture, the cells and culture media were collected for further experiments.\nRNA-Binding immunoprecipitation (RIP) and western blot (WB). Py8119-OVA tumor cells after co-culture for 24 hr were collected for RIP using RNA-Binding Protein Immunoprecipitation Kit (Millipore, #17-700). Briefly, 5×10^7 tumor cells were resuspended with 200 μL of RIP lysis buffer and frozen at −80° C. for at least 1 hr to lyse the cells. The sample was then centrifuged at 14,000 rpm for 10 min at 4° C. 20 μL of supernatant was transferred to two new tubes with 10 μL each and frozen at −80° C. to serve as input of total. The rest of the supernatant was diluted with 1.8 ml of RIP immunoprecipitation buffer and split equally into two 1.5 ml EP tubes. 5 μg of MTDH (Invitrogen, catalogue #40-6500), SND1 (Santa Cruz, catalogue #sc-271590) or IgG (provided in the Kit) antibody was added into each tube and incubated at 4° C. overnight. The next day, 50 μL of magnetic beads was added and incubated for another 2 hr. The beads were then washed with 500 μL of RIP wash buffer on a magnetic separator for 5 times. During the final wash, 25 μL of the beads in the wash buffer was transferred into a new tube, stored at −80° C. to serve as input of IP. The rest of the beads together and 10 μL input of total were resuspended with 300 μL of proteinase K buffer respectively and incubated at 55° C. for 30 min to degrade proteins. RNA was extracted with phenol:chloroform:isoamyl alcohol and precipitated with 100 μL of Salt Solution I, 30 μL of Salt Solution II, and 10 μL of Precipitation Enhancer at −80° C. overnight. […]"}, "[2]": {"test_system": "E0771-OVA Tap1/2 KD cells", "assay": "E0771-OVA Tap1/2 KD cells / OT-I splenocyte co-culture", "assay_type": "cell-based, mouse", "source_text": "For FIGS. 33B-33D, E0771-OVA cells with (shTap1/2) or without (shCtrl) Tap1/2 knockdown were co-cultured with OT-I splenocytes with the ratio of 1:10 (tumor cells:splenocytes). Data represent mean±SEM. n=3 independent experiments. Significance determined by one-way ANOVA analysis with Sidak's test for multiple comparisons.\nFIG. 33B, 24 hr after co-culture, tumor cells were collected for examining OVA (H-2K^b-SIINFEKL) expression.\nFIG. 33C, 24 hr after co-culture, tumor cells were collected for examining MHC-I expression.\nFIG. 33D, 24 hr after co-culture, splenocytes were collected for examining CD137 expression.\nFIG. 33E, The same co-culture experiment as in FIG. 33B were performed. The live tumor cells were indicated by luciferase signal. The percentage of live cells were determined as normalized to the non-co-culture control. Data represent mean±SEM. n=5 independent experiments. Significance determined by one-way ANOVA analysis with Sidak's test for multiple comparisons.\nMTDH-SND1 suppresses antigen presentation by reducing Tap1/2. To confirm that MTDH-SND1 drives immune evasion through suppressing the Tap1/2 pathway, antigen presentation-deficient cells were generated by knocking down Tap1/2^20. E0771-OVA cells were transduced with lentiviruses expressing Tap1/2-targeting shRNAs. […]"}}}
{"compound": "COc1ccc(Cl)cc1S(=O)(=O)Nc1cccn2nc(C)nc12", "note": "[Analog C26-A6]", "values": [{"measurement": "OVA antigen and MHC-I complex presentation (flow cytometry)", "setting": "[1]", "result": "promotes OVA antigen and MHC-I complex presentation"}, {"measurement": "T cell activation (CD137, IFN-γ)", "setting": "[1]", "result": "promotes"}, {"measurement": "Tap1/2 binding of MTDH and SND1 (RIP assay)", "setting": "[1]", "result": "decreased the Tap1/2 binding of MTDH and SND1"}, {"measurement": "Tap1/2 mRNA expression level (qRT-PCR)", "setting": "[1]", "result": "increased the expression level of these mRNAs"}, {"measurement": "immune clearance of tumor cells (cytotoxicity assay)", "setting": "[1]", "result": "sensitizes the tumor cells to immune clearance"}, {"measurement": "immune killing (live tumor cells)", "setting": "[2]", "result": "no boosting of immune killing"}, {"measurement": "antigen presentation and T cell activation", "setting": "[2]; 24 hr co-culture", "result": "no such change"}]}
